The values below come from patent US5210097A, “Xanthocillin X monomethyl ether derivative and antitumor agent containing the same” (Meiji Seika Kaisha Ltd., priority 1989, dated 1993).

Converted amounts (≈) assume the structure as drawn. Where only a bound is given, the exact number is not on record here.

In one series the test system is Meth-A cells. Briefly: Cytotoxicity in vitro (MTT assay, 3 days incubation). It is filed as cell-based, murine. To be noted: Mus musculus, 72 h, read-out: 50% inhibition concentration (IC50). The procedure: The cytotoxic effect of each compound of the present invention in vitro was evaluated in the following manner. Dulbecco's modified MEM medium containing 10% (v/v) of fetal calf serum was used as a medium while Meth-A solid tumor was used as a tumor. The cytotoxic effect of each compound on this tumor was examined. Meth-A cells, which had been subcultured in a carbon dioxide gas incubator, were suspended in the above-mentioned medium so as to give a density of 5×10^4 cells/ml. 135 μl portions of the suspension thus obtained were poured into 96-well microtiter plates. Each test compound was dissolved in a small amount of DMF and diluted with Dulbecco's modified MEM medium to a predetermined concentration. 15 μl portions of test compound solutions at various concentrations were added thereto and then incubated in a carbon dioxide gas incubator for 3 days. After the completion of the incubation, the 50% inhibition concentration (IC50) was determined by the MTT assay method ["Igaku no Ayumi", vol. 128, 733-735 (1984)].
For orientation: Tetrazolium assays rely on reduction of a dye to a coloured formazan, in cell work by metabolically active cells.

A further series relates to Meth-A solid tumor. In words: Inhibition of tumor growth in vivo (Meth-A solid tumor, Balb/c mouse). The arrangement: species or system murine (female Balb/c mouse). To be noted: intraperitoneal, once a day for 4 days; for Tumor weight: tumor weighed two weeks after transplantation, mean ± standard deviation; for Inhibition of tumor growth: two weeks after transplantation, versus control. The procedure:
The inhibition of tumor growth by the compounds of the present invention in vivo were evaluated in the following manner. 10^6 cells of Meth-A murine tumor cells were transplanted to the dorsal subcutaneous part of a female Balb/c mouse aged 6 weeks. On the next day of the transplantation, a test compound at each concentrations was intraperitoneally administered to the animal. The compound was suspended in a 1% solution of carboxymethyl cellulose (CMC) and thoroughly mixed ultrasonically. Alternately, it was thoroughly ground in a mortar and then suspended in a CMC solution. Thus a sample for injection was prepared. The test compound was administered once a day for 4 days continuously. To a control group, a 1% solution of CMC was administered once a day for 4 days continuously. Two weeks after the transplantation, the dorsal tumor was taken out and weighed to thereby determine the inhibition of tumor growth.

The nature of series [1]: Acute toxicity, intraperitoneal. The settings on record: mouse, in vivo, ip, female Balb/c mice aged 7 weeks.
The next series has as its system Ehrich ascites tumor. To be noted: cited from earlier work.
Series [2] has as its system conversion of arachidonic acid into prostaglandin H2. To be noted: N. Kitahara et al., J. Antibiotics, 34, 1556-1561 (1981); cited from earlier work.

Turning to `[C-]#[N+]C(=Cc1ccc(OC)cc1)C(=Cc1ccc(OCC(=O)OCC)cc1)[N+]#[C-]` [Compound No. 1], the IC50 in the series with Meth-A cells turned out to be 0.64 µg/mL (≈ 1.65 µM). In the series with Meth-A solid tumor (10 mg/kg/day), the Tumor weight is listed as 0.39 ± 0.08 g and the “Inhibition of tumor growth” value worked out at 67.5%. In series [1], the LD50 stood at 120 mg/kg.
As for `[C-]#[N+]C(=Cc1ccc(OC)cc1)C(=Cc1ccc(OCc2ccccc2)cc1)[N+]#[C-]` [Compound No. 2, 1-(4'-benzyloxyphenyl)-4-(4'-methoxyphenyl)-2,3-diisocyano-1,3-butadiene], the IC50 in the series with Meth-A cells is 0.7 µg/mL (≈ 1.78 µM). Also, in the series with Meth-A solid tumor (30 mg/kg/day), the Tumor weight came to 0.22 ± 0.04 g and the “Inhibition of tumor growth” value was found to be 67.6%.
With `[C-]#[N+]C(=Cc1ccc(OC)cc1)C(=Cc1ccc(OCCF)cc1)[N+]#[C-]` [Compound No. 3, 1-[4'-(2"-fluoroethyl)oxyphenyl]-4-(4'-methoxyphenyl)-2,3-diisocyano-1,3-butadiene], the IC50 in the series on Meth-A cells stood at 1.5 µg/mL (≈ 4.31 µM). Moreover, the LD50 in series [1] is more than 120 mg/kg.
As for `[C-]#[N+]C(=Cc1ccc(OC)cc1)C(=Cc1ccc(OCCCCCC)cc1)[N+]#[C-]` [Compound No. 4, 1-(4'-n-hexyloxyphenyl)-4-(4'-methoxyphenyl)-2,3-diisocyano-1,3-butadiene], in the series on Meth-A solid tumor (30 mg/kg/day), the Tumor weight amounted to 0.27 ± 0.20 g and the “Inhibition of tumor growth” value is reported as 71.9%.
With `[C-]#[N+]C(=Cc1ccc(OC)cc1)C(=Cc1ccc(OCc2ccncc2)cc1)[N+]#[C-]` [Compound No. 5, 1-[4'-(4"-pyridyl)methyloxyphenyl]-4-(4'-methoxyphenyl)-2,3-diisocyano-1,3-butadiene], the IC50 with Meth-A cells is 0.7 µg/mL (≈ 1.78 µM).
As for `[C-]#[N+]C(=Cc1ccc(OC)cc1)C(=Cc1ccc(OCc2ccccn2)cc1)[N+]#[C-]` [Compound No. 6, 1-[4'-(2"-pyridyl)methyloxyphenyl]-4-(4'-methoxyphenyl)-2,3-diisocyano-1,3-butadiene], the IC50 in the series on Meth-A cells was determined as 0.24 µg/mL (≈ 0.61 µM). For the same compound, the LD50 in series [1] is more than 120 mg/kg.
Regarding `[C-]#[N+]C(=Cc1ccc(OC)cc1)C(=Cc1ccc(OCc2ccc(C)cc2)cc1)[N+]#[C-]` [Compound No. 7, 1-[4'-(4"-toluyl)methyloxyphenyl]-4-(4'-methoxyphenyl)-2,3-diisocyano-1,3-butadiene], the IC50 in the series on Meth-A cells was determined as 1.8 µg/mL (≈ 4.43 µM). Also, in the series with Meth-A solid tumor (30 mg/kg/day), the Tumor weight was determined as 0.60 ± 0.20 g and the “Inhibition of tumor growth” value is reported as 68.4%.
As to `[C-]#[N+]C(=Cc1ccc(OC)cc1)C(=Cc1ccc(OC(=O)c2ccccc2)cc1)[N+]#[C-]` [Compound No. 8, 1-(4'-benzoyloxyphenyl)-4-(4'-methoxyphenyl)-2,3-diisocyano-1,3-butadiene], in the series with Meth-A cells, the IC50 came to 1.7 µg/mL (≈ 4.18 µM). Also, in the series with Meth-A solid tumor (30 mg/kg/day), the Tumor weight worked out at 1.40 ± 0.30 g and the “Inhibition of tumor growth” value was 26.3%. In series [1], this compound returned an LD50 of more than 300 mg/kg.
For `[C-]#[N+]C(=Cc1ccc(OC)cc1)C(=Cc1ccc(OCc2ccc(Cl)cc2)cc1)[N+]#[C-]` [Compound No. 9, 1-[4'-(4"-chlorophenyl)methyloxyphenyl]-4-(4'-methoxy-phenyl)-2,3-diisocyano-1,3-butadiene], the IC50 in the series on Meth-A cells is 1.8 µg/mL (≈ 4.22 µM). In the series on Meth-A solid tumor (30 mg/kg/day), the Tumor weight turned out to be 0.60 ± 0.50 g and the “Inhibition of tumor growth” value is 68.4%. This compound also yielded an LD50 in series [1] of more than 300 mg/kg.
In the case of `[C-]#[N+]C(=Cc1ccc(O)cc1)C(=Cc1ccc(OC)cc1)[N+]#[C-]` [xanthocillin X monomethyl ether, 1-(4'-hydroxyphenyl)-2,3-diisocyano-4-(4'-methoxyphenyl)-1,3-butadiene], the “proliferation of Ehrich ascites tumor” value with Ehrich ascites tumor (during administration) is “would suppress the proliferation of Ehrich ascites tumor”. Further, in the series on Ehrich ascites tumor (immediately after stopping the administration), the “proliferation of cancer cells after stopping the administration” value is “the cancer cells would proliferate again immediately after stopping the administration of this compound”. Further, in series [2], the “inhibition of biosynthesis of prostaglandin or thromboxane” value was “would inhibit the biosynthesis of prostaglandin or thromboxane”.

In general, LD50 refers to the dose at which mortality reaches 50%.
